The values that follow come from US5466716A, “Liposomal trimethylsphingosine” (The Biomembrane Institute, priority 1994, dated 1995).

One series concerns platelets. Nature of the series: platelet aggregation. The class given is cell-based, human. As for the experimental part:
FIGS. 7A and 7B depict the effect of N,N,N-trimethylsphingosine (TMS) on platelet aggregation. A 0.45 ml aliquot of human platelet suspension (3-5×10^5 platelets per μl of Tyrode's buffer) was incubated with sphingosine or TMS for 2 minutes. Then platelet aggregation was induced by the addition of either γ-thrombin (FIG. 7A) or adenosine diphosphate (ADP) (FIG. 7B) in 0.05 ml. The degree of aggregation was determined in an aggregometer and the data analyzed with an integrated computer (Kyoto Daiichi Kagaku Co. Ltd.).
FIG. 8 depicts further the dose response of platelet aggregation by sphingoid. Aggregation of the platelets was induced with 10 nM γ-thrombin.
Platelets were isolated from platelet-rich plasma (purchased from the Oregon Red Cross, Portland, Oreg. Contaminating erythrocytes were removed by centrifugation (80×g for 10 minutes). Platelets were obtained by centrifugation (300×g for 10 minutes), washed once in Tyrodes's buffer (pH 6.5) containing 22 mM trisodium citrate and 0.35% (w/v) BSA and resuspended in the same buffer to obtain a concentration of 1-2×10^9 platelets/ml. All procedures were performed at room temperature.
A suspension of platelets (3.5×10^8 /ml) in Tyrode's buffer was preincubated with various inhibitor compounds (H-7 is [1-(5-isoquinolinylsulfonyl)-2-methylpiperazine, a synthetic protein kinase-C inhibitor purchased from Seikagaku America Inc., St. Petersburg, Fla.], calphostin-C [a synthetic protein kinase-C inhibitor obtained from Dr. Saitoh, Kyowa Hakko Co., Ltd., Machida, Tokyo, Japan], sphingosine [purchased from Sigma, St. Louis, Mo.] and dimethylsphingosine and trimethylsphingosine [synthesized according to Igarashi et al., Biochem., 28, 6796, 1989]) followed by addition of thrombin or ADP (both purchased from Sigma). Platelet aggregation was evaluated by transmittance change using an aggregometer (Chrono-log Corp., Havertown, Pa.) equipped with a computer analyzer.

The test system of the next series is neutrophils. The experiment in a line: neutrophil transmigration through HUVEC monolayer. Format: cell-based, human. Here is the method: A characteristic of neutrophils is the ability to adhere to activiated EC's and to migrate through the EC monolayer into the vascular or extravascular matrix. The effect of TMS on neutrophil interactions with EC's and their subsequent trans-endothelial migration thereof can be monitored in vitro using human umbilical endothelial cells (HUVEC's) (Luscinskas et al., J. Imm., 146, 1617, 1991). Neutrophils are added to a HUVEC monolayer and neutrophil-HUVEC interactions are assessed microscopically following fixation, embedding and staining of monolayer sections.
Cross-sections (2 μm) of the collagen bed with HUVEC's and neutrophils
were observed using a Zeiss light microscope with KPL W10 ahd Ph2 Neoflua
16 lenses. The number of cells transmigrated were counted for each view.
HUVEC's and culture media were purchased from Cell Systems (Kirkland, Wash.). The cells were maintained and cultured as described in Luscinskas et al., supra, with some modifications. Briefly, HUVEC's were maintained in 10 ml tissue culture flasks on a collagen type I bed obtained from rat tail (Upstate Biotechnology Inc, Lake Placid, N.Y.) with CS-complete medium, CS-growth factor and CS-AF-1 (Cell Systems). Cells became confluent within 2 to 4 days when incubated in 5% CO2 at 37° C.
For the transmigration assay, thick gels were formed in 24-well tissue culture plates. Preparation of the gel solution was carried out at 4° C. Eight parts of collagen solution (Vitrogen 100, from bovine tendon which contained less than 5 ng/ml endotoxin; Celtrix Labs, Palo Alto, Calif.), one part of 10×RPMI and one part of alkaline solution (2.2 g NaHCO3 in 100 ml of 0.05N NaOH and 200 mM HEPES) were mixed gently and distributed at 0.7 ml/well. The solution was left for 4 hr at 37° C. to eliminate air bubbles, then allowed to gel in a 37° C. oven for 3 hr. The wells were washed with 1.0 ml of CS-complete medium with attachment factors at least 4 times and every 3 to 6 hr during further incubation at 37° C. in 5% CO2.
HUVEC's at a passage level of less than 3 were detached from 10 ml tissue culture flasks with 3 ml of Trypsin-EDTA at 37° C. for 30 to 60 sec. Immediately, 3 ml of M199 with 20% heat-inactivated FCS was added. Cells were collected by centrifugation. The pellet was resuspended in 10 ml of CS-complete medium with attachment factors. Homogeneous cell suspensions were plated at 0.7 ml to each well and the plates were incubated for 3 hr at 37° C. The supernatant, which contains dead cells, was aspirated carefully and fresh complete medium with attachment factors was added.
The HUVEC monolayer in 24-well tissue culture plates were washed with M199 without FCS, then incubated with 1 ml/well of IL-1β (Boehringer Mannheim Biochemical Products, Indianapolis, Ind.) dissolved in M199 with 1% heat-inactivated FCS (HIFCS) at 10 U/ml. The plates were incubated at 37° C., 5% CO2 for 4 hr then washed gently with 1 ml of M199. The purified neutrophil suspension (1.5×10^6 cells/ml) in M199 containing 1% HIFCS was pre-incubated with TMS, or other effectors, for 10 min at 37° C. After aspirating the media in the well, 0.5 ml of the neutrophil suspension were added onto the HUVEC monolayer. The tissue culture plate was incubated for 90 min at 37° C.
The culture was terminated by gently aspirating the cell suspension, adding 1 ml of 10% formaldehyde in PBS and stored at 4° C. overnight for fixation. The edge of the collagen bed was cut with a small spatula along the wall 2 hr before removal from the well. The collagen bed, which has HUVEC's on the surface and transmigrated neutrophils within was embedded in paraffin, sectioned and followed by staining with hematoxylin-eosin for microscopic examination.

For another series, the system named is protein kinase-C. The conditions noted are these: cited from earlier work.

Entries after “also recorded” stand apart in the source; their conditions may differ. Like-named read-outs stand apart in the source and are kept apart here.

On to `CCCCCCCCCCCCC/C=C/[C@@H](O)[C@H](CO)N(C)C` [DMS, (4E)-N,N-dimethyl-D-erythro-sphingosine], for which, in the series with platelets (thrombin or ADP, compared with TMS), the “inhibition of thrombin- or ADP-induced platelet aggregation” value is on record as “did not inhibit thrombin- or ADP-induced platelet aggregation as well as did TMS”.

Consider `CCCCCCCCCCCCC/C=C/[C@@H](O)[C@@H](N)CO` [SPN, sphingosine], for which the activity at 15 µM in the series on neutrophils (Homo sapiens, Neutrophil, 1.5 h, read-out: Number of Cells/View) was 36 ± 12%. In addition, in the series on protein kinase-C (below 100 μM, Igarashi et al.), the PK-C inhibition entry is listed as “did not inhibit PK-C”.

Turning to `CCCCCCCCCCCCC/C=C/[C@@H](O)[C@H](CO)[N+](C)(C)C` [TMS, N,N,N-trimethylsphingosine], the “inhibition of ATP secretion associated with platelet aggregation” value with platelets is “inhibited strongly”. Further, in the series on platelets, the “inhibition of platelet aggregation” value is “inhibited strongly; also recorded: inhibited platelet aggregation in a dose-responsive fashion”. For the same compound, the “ristocetin-induced platelet aggregation following incubation” value with platelets (exclusion of cytotoxicity on platelets) is “normal ristocetin-induced aggregation”. Besides, the “inhibition of neutrophil migration” value in the series with neutrophils (8 μM pre-treatment) is reported as “inhibited strongly”; with neutrophils (25 μM pre-treatment) it was “completely inhibited”. Also, the “number of cells migrating through the EC monolayer” value with neutrophils (15 μM) is “greatly reduces the number of cells migrating”. The “neutrophil migration (transmigration)” value in the series with neutrophils (Example 10) was “affected neutrophil migration”. For the same compound, the activity at 4 µM in the series with neutrophils (Homo sapiens, Neutrophil, 1.5 h, Table II, 4 μM, control 100, read-out: neutrophil transmigration (number of cells transmigrated)) was found to be 96 ± 18%. In the series with neutrophils (Homo sapiens, Neutrophil, 1.5 h, Table II, 8 μM, control 100, read-out: neutrophil transmigration (number of cells transmigrated)), the activity at 8 µM was 66 ± 28%. Moreover, the activity at 15 µM in the series on neutrophils (Homo sapiens, Neutrophil, 1.5 h, Table II, 15 μM, control 100, read-out: neutrophil transmigration (number of cells transmigrated)) was 41 ± 8.7%; with neutrophils (Homo sapiens, Neutrophil, 1.5 h, Table III, 15 μM, control 100, read-out: Number of Cells/View) it was 39 ± 17%. For the same compound, the activity at 25 µM in the series on neutrophils (Homo sapiens, Neutrophil, 1.5 h, Table II, 25 μM, control 100, read-out: neutrophil transmigration (number of cells transmigrated)) turned out to be 6.8 ± 4.1%. Also, the activity at 45 µM with neutrophils (Homo sapiens, Neutrophil, 1.5 h, Table II, 45 μM, control 100, read-out: neutrophil transmigration (number of cells transmigrated)) was 1.2 ± 1.2%.

With Calphostin C, the “Number of Cells/View” value in the series with neutrophils (Table III, 5 μM, control 100, 90 min) was 19 ± 8.9. Moreover, the “concentration reported to inhibit protein kinase-C” value with protein kinase-C (in vitro, Tamaoki & Nakano) was 0.05 µM.
